Assay results: patent USRE37828E1, “Treatment and prevention of adhesions” (Hadasit Medical Research Services & Development Co., Ltd., priority 1997, dated 2002)
“And” between values parts separate entries of the source, which are not always exact repeats. Equal values may be shown once.

Key:
abdominal adhesions [1] = assay: Post-surgical abdominal adhesions in rats, Halofuginone i.p. injection: number and severity of adhesions; type: in vivo; parameters: key to Adhesion Score: 0=no adhesions; I=a thin, filmy, easily separated adhesion; II=several thin adhesions; III=a thick, broad adhesion; IV=several thick adhesions
Experimental: (§1) The experiments were performed as follows. First, the abdomen of the rats was shaved and prepared with iodine and alcohol. The abdominal cavity was entered through a mid-line incision. The small intestine was scraped from the duodenum down to from about 9 to about 10 cm from the cecum, until capillary bleeding occurred. To avoid drying, Hartman's solution at about 37° C. was occasionally dripped on the intestine. After replacement of the intestine into the abdominal cavity, the abdomen was closed in two layers with continuous 00 chromic catgut suture. […] Res., Vol 17, p. 254-258, 1985]. After 21 days, the rats were sacrificed and the sutures were reopened to determine the level of adhesion formation and to take biopsies of the tissue.
The experiment was performed as follows. Abdominal adhesions were induced in two groups of rats as described above in Example 1. […] One group of the rats which underwent surgery received an i.p. injection of Halofuginone every day after the operation for 21 days. The rats were dosed according to body weight, with 1 ug of Halofuginone given per 25 g of body weight. […]
Two different tests were performed to assess the effect of Halofuginone on the number and severity of adhesions in rats which underwent surgery. […] At the end of 21 days, the rats were weighed and the number and severity of adhesions were determined according to a double-blind procedure. […]

abdominal adhesions [2] = assay: Post-surgical abdominal adhesions in rats, Halofuginone in the diet: number and severity of adhesions; type: in vivo; parameters: key to Adhesion: 0=no adhesions; I=a thin, filmy, easily separated adhesion; II=several thin adhesions; III=a thick, broad adhesion; IV=several thick adhesions; settings: for Adhesion: one rat per row
Experimental: as §1
In the double-blind procedure, adhesions were classified according to the following grading: 0=no adhesions; I=a thin, filmy, easily separated adhesion; II=several thin adhesions; III=a thick, broad adhesion and IV=several thick adhesions. Clearly, 0 is the least severe and IV is the most severe grade.
(§2) In the second experiment, Halofuginone was administered in the diet of two groups of rats at a concentration of 5 mg/kg dry feed for 4 days before surgery, as a pretreatment. Two other groups of rats were fed a normal diet and served as control groups. One of the groups of rats fed Halofuginone and one control group the underwent surgery as described above. Halofuginone treatment was continued for 21 days following surgery, after which the rats were sacrificed and the number and severity of adhesions were determined, and body weight was measured.

collagen type I [3] = assay: Collagen α1(I) gene expression and collagen type I content in surgically insulted abdominal tissue (in situ hybridization, Sirius red); type: in vivo; settings: rats with surgery, Halofuginone i.p. daily for 21 days
Experimental: as §1
The tissue was sectioned so that histological studies could be performed. Briefly, the tissue samples were collected into phosphate-buffered saline (PBS) and fixed overnight in 4% paraformaldehyde in PBS at 4° C. Serial 5 μm sections were prepared after the samples had been dehydrated in graded ethanol solutions, cleared in chloroform and embedded in Paraplast. Differential staining of collagenous and non-collagenous proteins were performed with 0.1% Sirius red and 0.1% fast green as a counter-stain in picric acid. This procedure stains collagen red [Gascon-Barre, M., et al., J. Histochem. Cytochem., Vol 37, p. 377-381, 1989].
For hybridization with the genetic probe, the sections were deparafinized in xylene, rehydrated through a graded series of ethanol solutions, rinsed in distilled water for 5 minutes and then incubated in 2×SSC [What is the recipe?] at 70° C. for 30 minutes. The sections were then rinsed in distilled water and treated with pronase, 0.125 mb/ml in 50 mM Tris-HCl, 5 mM EDTA, pH 7.5 for 10 minutes. […] Alkaline phosphatase activity was detected in the sections as previously described [Knopov, V., et al., Bone, Vol 16 p. […]
After 21 days, tissue samples were taken for histological analysis as described above. Both collagen type I content of the tissue, and the level of collagen a(1)I gene expression were measured.

alkaline phosphatase = assay: Alkaline phosphatase activity in tissue sections after abdominal surgery; type: in vivo; settings: rats with surgery injected with Halofuginone, 21 days; FIG. 3C
Experimental: For hybridization with the genetic probe, the sections were deparafinized in xylene, rehydrated through a graded series of ethanol solutions, rinsed in distilled water for 5 minutes and then incubated in 2×SSC [What is the recipe?] at 70° C. for 30 minutes. The sections were then rinsed in distilled water and treated with pronase, 0.125 mb/ml in 50 mM Tris-HCl, 5 mM EDTA, pH 7.5 for 10 minutes. After digestion, the slides were rinsed with distilled water, post-fixed in 10% formalin in PBS and blocked in 0.2% glycine. After blocking, the slides were rinsed in distilled water, rapidly dehydrated through graded ethanol solutions and air-dried for several hours. Before hybridization, the 1600 bp rat collagen α1(I) insert was cut out from the original plasmid, pUC18, and inserted into the pSafyre plasmid. The sections were then hybridized with this probe after digoxigenin-labelling. Alkaline phosphatase activity was detected in the sections as previously described [Knopov, V., et al., Bone, Vol 16 p. 329S-334S, 1995].
After 21 days, tissue samples were taken from all three groups of rats and histological sections were prepared as described in Example 1, and alkaline phosphatase activity was measured as described in Example 1.

skin wound [4] = assay: Wound healing and collagen content of skin wounds in irradiated and non-irradiated mice; type: in vivo, C3H mice; settings: Halofuginone 1 μg/mouse i.p. every other day, 14 days
Experimental: The experiment was conducted as follows. First C3H, defined-flora, pathogen-free female mice of 12-14 weeks of age were anesthetized with 60 mg/kg sodium phenobarbital. The mice were then shaved. One group of mice was then irradiated as follows. First, a flap of skin about 40 mm long and about 20 mm wide was pulled through a slit in the lead cover of an irradiation jig and secured with tape, so that only the flap of skin was exposed. This exposed skin was then irradiated by using a 175 kVp/20 mA orthovoltage X-ray source, with a 2 mm Cu filter at a dose rate of 1.0 Gy/min. A standard dose of 18 Gy was delivered.
All of the mice were then wounded by making a fill depth incision, about 25 mm long, in the skin along the midline of the lower back. Note that for the irradiated animals, the wound was made within the irradiated area, immediately following irradiation. For all mice, the incision was immediately closed by 3-4 metallic wound closure clips which were removed 2 days later.
After wounding, the mice were injected i.p every other day, either with 1 μg/mouse Halofuginone or with saline as a control. After 14 days, 2 days following the last injection, the mice were sacrificed and skin samples were collected into phosphate-buffered saline (PBS) and fixed in 4% paraformaldehyde in PBS at 4° C. […]

skin wound [5] = assay: Wound strength (bursting point of skin strips, Instron tensiometer); type: in vivo, rats; settings: irradiated or non-irradiated animals, one or six injections of Halofuginone; FIG. 5
Experimental: Wound strength was assessed by preparing rats substantially as described above, except that one group of rats (not irradiated) only received one injection of Halofuginone after wounding. The strength of wounds was measured as follows. First, a square of skin which was approximately 20 mm long and 16 mm wide, and which included the main part of the wound, was excised from sacrificed rats. Next, the skin was cut, perpendicular to the wound, to yield 7 strips of skin, each of which was 2 mm wide. The skin strips were secured between paper reinforcement frames and loaded on an Instron tensiometer for stretching at a constant rate of 25 mm/min. The bursting point was then recorded.

[6] = parameters: species or system rats; settings: rat, in vivo, ip
Experimental: The experiment was performed as follows. Abdominal adhesions were induced in two groups of rats as described above in Example 1. […] One group of the rats which underwent surgery received an i.p. injection of Halofuginone every day after the operation for 21 days. The rats were dosed according to body weight, with 1 ug of Halofuginone given per 25 g of body weight. The other group of rats which underwent surgery received saline injections for 21 days.
Two different tests were performed to assess the effect of Halofuginone on the number and severity of adhesions in rats which underwent surgery. […] The experimental method was as follows. For the first test, three groups of rats were prepared as described above in Example 2. At the end of 21 days, the rats were weighed and the number and severity of adhesions were determined according to a double-blind procedure.

[7] = parameters: species or system rats; settings: rat, in vivo
Experimental: as §2

[8] = test system: adhesions between tendon and its sheath; settings: chickens, local treatment through a catheter; cited from earlier work
collagen type I [9] = settings: cited from earlier work
peritoneal adhesions = settings: rats, cited from earlier work
[10] = ascribed to effects on many collagen types and Fe++ ion-binding enzymes; cited from earlier work
adhesions = settings: infertility surgery, gynecological surgeons; cited from earlier work

In the case of O=C(CC1NCCCC1O)Cn1cnc2cc(Br)c(Cl)cc2c1=O (centres unmarked) [Halofuginone], the “Adhesion Score” value (abdominal adhesions [1]; Group 2: rats with surgery, Halofuginone i.p. 1 ug per 25 g body weight daily for 21 days, one rat per row) is reported as 0 (3×) and 0-1 and 2, the “number and severity of adhesions” value (abdominal adhesions [1]; Halofuginone-treated (i.p.) compared to non-treated rats after surgery) is reported as “sharply reduced” and the Adhesion (abdominal adhesions [2]; Group 2: rats with surgery, Halofuginone 5 mg/kg dry feed from 4 days before to 21 days after surgery) is reported as 0-1 (3×) and 1 (3×) and 1-2 (2×) and 0 (2×). The Adhesion (abdominal adhesions [2]; Group 3: rats without surgery, Halofuginone 5 mg/kg dry feed) was 0, the “number of rats with an adhesion” value (abdominal adhesions [2]; Halofuginone in diet, rats with surgery, compared to untreated operated rats) was “smaller number” and the “damage to the villi” value (collagen type I [3]) was “much less damage”. For the same compound, the “collagen α1(I) gene expression” value (collagen type I [3]; FIG. 2C) was “low levels”, the “collagen type I content” value (collagen type I [3]; FIG. 2F) was “low level” and the alkaline phosphatase activity (alkaline phosphatase) was “substantially no alkaline phosphatase activity”. For the same compound, the “collagen content of the wound” value (skin wound [4]; irradiated (18 Gy) mouse, FIG. 4H) was “significantly lowered”, the wound healing (skin wound [4]; irradiated and non-irradiated mice) was “healed” and the wound strength (skin wound [5]) was “did not reduce wound strength”. The “reduction in weight gain” value [6] was “more pronounced”, the weight gain [7] was “substantially similar” and the “prevention of adhesions between tendon and sheath” value [8] was “effective”. For the same compound, the “inhibition of synthesis of collagen type I versus other collagens (α2(I), type II, type III, type X)” value (collagen type I [9]) was “only inhibits the synthesis of collagen type I”.

In the case of Oc1cc(O)c2c(c1)O[C@H](c1ccc(O)c(O)c1)[C@@H](O)C2 [cianidanol], the “number of post-surgical adhesions” value (peritoneal adhesions) is listed as “decrease” and the toxicity [10] is listed as “toxic”.

For dextran, the adhesive prevention (adhesions) is listed as “little success”.

For povidone-iodine, the “reduction of the number of peritoneal adhesions after surgery” value (peritoneal adhesions; effect ascribed to an anti-microbial effect) is listed as 35%.
